This note sets out measurements from patent publication US8916681B2, “Compound, use and method” (Medical Research Council, priority 2007, dated 2014).

In test [1] the test system is serum LH and testosterone. Briefly: Kisspeptin-10 stimulated LH and testosterone in intact male rats, icv injections. The test is classed as in vivo, rat. The settings on record: for LH secretory response to kisspeptin-10 (AUC): 1 nmol icv with 100 pmol kisspeptin-10, 120-min period after co-injection; for testosterone levels vs kisspeptin-10 alone: 60 min after combined injection with kisspeptin-10. The protocol: Adult male rats (BW: 280-310 g) bred in the vivarium of the University of Córdoba were used. The animals were maintained under constant conditions of light (14 h of light, from 0700 h) and temperature (22 C), and, before cannula implantation, were kept in groups of four rats per cage with free access to pelleted food and tap water. Experimental procedures were approved by the Córdoba University Ethical Committee for animal experimentation and were conducted in accordance with the European Union normative for care and use of experimental animals.
The animals were implanted with icy cannulae under light ether anaesthesia and caged individually thereafter. To allow delivery of compounds into the lateral cerebral ventricle, the cannulae were lowered to a depth of 4 mm beneath the surface of the skull; the insert point was 1 mm posterior and 1.2 mm lateral to bregma. Functional tests were conducted at least 24-48 h after cannula implantation.
Pharmacological tests in intact males involved 5 μl injections at 60 min intervals (icy) of 1 nmol doses of the peptide 234. The last injection was accompanied by the injection of an effective (but sub-maximal) dose of 100 pmol kisspeptin-10 (Phoenix Pharmaceuticals Ltd). Animals injected with vehicle (physiological saline) served as controls. Blood samples (250 μL) were taken by jugular venipuncture at 15- and 60-min following each icy injection. In addition, blood samples were taken immediately before initiation of the experiment (time: 0-min) and at 120-min after last injection (time: 240-min). Experimental procedures and kisspeptin doses were selected on the basis of previous studies (16, 34, 48). For each time-point, 10-12 samples were taken per group.
Serum LH levels were measured in a volume of 50 μl using a double-antibody method and radioimmunoassay kits supplied by the NIH (Dr. AF Parlow, NIDDK). Rat LH-I-10 was labeled with ^125I using Iodo-Gen precoated tubes, following the instructions of the manufacturer (Pierce), and hormone concentrations were expressed using reference preparation LH-RP-3 as standard. Intra- and inter-assay coefficients of variation were below 8 and 10%, respectively. The sensitivity of the assay was 5 pg/tube. In addition, serum testosterone (T) measurements were selectively conducted in blood samples taken 60-min after co-administration of kp-10 and peptide 234 (Time: 180-min). To this end, a commercial kit from MP Biomedicals was used, following the instructions of the manufacturer. The sensitivity of the assay was 0.1 ng/tube and the intra-assay coefficient of variation was 4.5%. For each hormone, all samples were measured in the same assay. Accuracy of hormone determinations was confirmed by assessment of rat serum samples of known hormone concentrations used as external controls.
Hormonal determinations were conducted in duplicate, with a minimal total number of 10 samples per group. When appropriate, in addition to individual time-point measurements, integrated LH secretory responses were calculated as the area under the curve (AUC), following the trapezoidal rule. Hormonal data are presented as mean±SEM. Results were analyzed for statistically significant differences using Student t-test or ANOVA followed by Student-Newman-Keuls multiple range test (SigmaStat 2.0). P≦0.05 was considered significant.

Test [2] concerns CHO cells stably expressing human gpr-54. As to the kind of experiment: Cell migration (wound healing) assay in CHO cells. In kind it is cell-based, Chinese hamster. As for the experimental part:
(§1) Human Umbilical Vein Endothelial Cells (HUVECs) isolated from neonatal umbilical cord were used as they endogenously express gpr-54, which is though to be involved in cell migration in the placenta. Chinese hamster ovary (CHO) cells which stably express the human gpr-54 receptor were used as a model cell line for wound healing assays. […] Complete media was added along with 1 nM Kisspeptin-10 for HUVECs and 100 nM Kisspeptin-10 for CHO cells, the optimal concentrations to inhibit cell migration (wound healing) in each cell type, in the presence and absence of antagonist 233, 234, 273 and 276 for HUVECs and 234 for CHOs. […] Cells were photographed on the axiovert 2000 at 20× magnification in phase contrast (Hori et al., 2001. Metastin suppresses the motility and growth of CHO cells transfected with its receptor. Biochem Biophys Res Commun 286, 958-963; Stafford et al., 2002, Identification and characterization of mouse metastasis-suppressor KiSS1 and its G-protein-coupled receptor. Cancer Res 62, 5399-5404).

Test [3] deals with HUVECs (Human Umbilical Vein Endothelial Cells). As to the kind of experiment: Cell migration (wound healing) assay in HUVECs. In kind it is cell-based. The protocol:
as §1

A further test concerns the target GPR54 (Homo sapiens, UniProt Q969F8). Briefly: Whole cell receptor binding assay, competition with 125I-labelled kisspeptin-10. Details: expressed in transfected cells; host or cells: CHO, stably transfected. The conditions noted are these: competition with I125-labelled kisspeptin-10. The protocol:
Whole Cell Receptor Binding Assay—Kisspeptin-10 and analogues were prepared at 1:1000 dilutions in HEPES modified Dulbecco's modified Eagle's medium (DMEM) supplemented with ^125I-labelled Kisspeptin to produce 100,000 counts per minute (cpm). Cell monolayers were placed on ice and exposed to 0.5 mls peptide (10 pM-1 uM); the cells were then incubated at 4° C. for 4 hr. After 4 hrs, cells were washed twice with ice cold Dulbecco's phosphate buffered saline (DPBS; with Calcium and Magnesium) and then 0.5 mls 0.1M Sodium Hydroxide (NaOH) were added to cells for 20 minutes, shaking to lyse cells. Lysates were transferred to plastic tubes and bound radioactivity counted on the gamma counter for 60 seconds.

Each structure is given as a SMILES string. Where “and” joins values, the source holds several entries; their conditions need not be identical. Identical values can stand only once. Entries after “also recorded” stand apart in the source; their conditions may differ. Like-named read-outs stand apart in the source and are kept apart here. Non-standard residues stand in square brackets, D forms with d. Residues, ends and D or L forms follow the SMILES beside them.

GPR54, sequence (Q969F8 whole entry): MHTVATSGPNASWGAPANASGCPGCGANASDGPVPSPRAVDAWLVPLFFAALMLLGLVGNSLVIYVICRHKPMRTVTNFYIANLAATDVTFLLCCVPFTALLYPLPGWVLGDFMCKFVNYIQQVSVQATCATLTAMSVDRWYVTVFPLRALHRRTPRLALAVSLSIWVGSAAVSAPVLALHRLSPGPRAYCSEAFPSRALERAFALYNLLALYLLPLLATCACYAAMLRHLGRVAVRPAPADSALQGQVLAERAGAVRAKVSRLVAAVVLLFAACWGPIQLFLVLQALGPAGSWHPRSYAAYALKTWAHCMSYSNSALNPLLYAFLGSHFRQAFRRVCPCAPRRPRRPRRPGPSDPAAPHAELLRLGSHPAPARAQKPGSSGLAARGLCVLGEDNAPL

As for `CC(C)C[C@H](NC(=O)CNC(=O)[C@H](Cc1ccccc1)NC(=O)[C@H](CO)NC(=O)[C@H](CC(N)=O)NC(=O)[C@H](Cc1c[nH]c2ccccc12)NC(=O)[C@H](CC(N)=O)NC(=O)[C@@H](N)Cc1ccc(O)cc1)C(=O)N[C@@H](CCCNC(=N)N)C(=O)N[C@@H](Cc1ccccc1)C(N)=O` [Kiss, reference compound], the “serum LH levels” value in test [1] (central injection to vehicle-treated animals at 120 min) is “evoked the expected rise”. Further, the “inhibition of cell migration” value in test [2] (100 nM) is listed as 50%. The “inhibition of migration in to the wound” value in test [3] (1 nM) turned out to be 50%. The same molecule showed a Kd at GPR54 (binding affinity) of 2 nM.
For the molecule `CC(=O)N[C@H](C)C(=O)N[C@@H](CC(N)=O)C(=O)N[C@@H](Cc1c[nH]c2ccccc12)C(=O)N[C@@H](CC(N)=O)C(=O)NCC(=O)N[C@@H](Cc1ccccc1)C(=O)NCC(=O)N[C@H](Cc1c[nH]c2ccccc12)C(=O)N[C@@H](CCCNC(=N)N)C(=O)N[C@@H](Cc1ccccc1)C(N)=O` [Peptide 234] (Ac-[dA]NWNGFG[dW]RF-NH2), in test [1], the “LH secretory response to kisspeptin-10 (AUC)” value is listed as “inhibits; also recorded: blocked” and the “testosterone levels vs kisspeptin-10 alone” value was “blocked”. Also, in test [1] (listed as peptide 234), the “LH secretory response to kisspeptin-10 (AUC)” value was “significantly blunted” and the “testosterone levels vs kisspeptin-10 alone” value is listed as “lower”. In addition, the “basal LH levels” value in test [1] (1 nmol icv, 15, 60, 75 and 120 min after injection) was “did not significantly modify”. For the same molecule, in test [2] (22 hrs), the “effect on inhibition of cell migration by 100 nM Kisspeptin” value is reported as “completely abolishes”. In addition, the “inhibition of migration by 1 nM Kisspeptin in the presence of peptide” value in test [3] (22 hrs) is given as 10%. Besides, the Kd at GPR54 (read-out: binding affinity) was 2 nM and 2.7 nM.
